These results are taken from US10251860B2, “Compounds for bone healing” (University of Pittsburgh—Of the Commonwealth System of …, priority 2015, dated 2019).

SMILES strings stand for the structures. “Also recorded” adds a separate entry of the source.

One data set concerns Brine shrimp. Put plainly: Brine shrimp toxicity assay. Type of data set: in vivo. As for the experimental part: General procedure for brine shrimp toxicity assays. Sample preparation. Stock solutions of 3 were prepared by dissolving 3 (50.0 mg) in 5.0 HPLC grade water (5.0 mL), (solution A) and 3 (2.50 g) in HPLC grade water (10.0 mL) (solution B). Stock solutions of DMSO were prepared by diluting DMSO (45 μL) with HPLC grade water (5.0 mL) (solution C) and DMSO (2.27 mL) with HPLC grade water (10.0 mL) (solution D).
In each case, 5 replicates were performed. Each replicate was performed in a 2 dram vial marked at the 4 and 5 mL volume points. To each vial was added artificial sea water (3 mL) followed by the appropriate volume of stock solution. For set 1 (1.0 mg/mL), solution A (0.500 mL) or solution C (0.500 mL) was added. For set 2 (5.0 mg/mL), solution B (0.100 mL) or solution D (0.100 mL) was added to each vial. For set 3 (20.0 mg/mL), solution B (0.400 mL) or solution D (0.400 mL) was added to each vial. For set 4 (50.0 mg/mL), solution B (1.00 mL) or solution D (1.00 mL) was added to each vial. Controls containing HPLC grade water (0.100 mL, 0.400 mL, and 1.00 mL) were prepared in the same manner, and five replicates of each control were prepared.
Brine shrimp eggs (San Francisco Bay Brand) were hatched in a commercial salt mixture (Instant Ocean). Constant aeration was provided using a pump and airstone, and illumination was maintained using a desk lamp. The shrimp were collected in a separate tank after 48 hours and used within 3-4 hours of collection.
Brine shrimp were added to each vial using a plastic transfer pipet. After the shrimp were transferred, artificial sea-water was added until the volume reached the 5-mL mark. One drop of a yeast suspension prepared by suspending 11 mg yeast in sea-water (20 mL) was added to each vial. The shrimp were counted at t=24 hours. Another drop of freshly prepared yeast solution (6 mg in 10 mL sea water) was added, the vials were maintained under illumination, and shrimp were counted at t=48 hours.

Data set [1] concerns breast cancer cell line (MDA-MB-231). Type of data set: cell-based. The text has this:
(§1) The cellular toxicity of sulfoxide 3 was further determined for a breast cancer cell line (MDA-MB-231) and a liver cell line (HepG2).

A further data set has as its system liver cell line (HepG2). Type of data set: cell-based.
Text: as §1

In data set [2] the test system is luc+ bone marrow stromal cells migrating to lungs. Put plainly: Live imaging of luc+ marrow cell migration to irradiated lungs. The class given is in vivo, mouse. As to conditions: MMS350 in drinking water. As for the experimental part:
C57BL/6NTac mice marrow chimeric luc+ mice were prepared by 9.25 Gy TBI, followed by an injection of 1×10^7 luc+ marrow cells 24 hours later. Subgroups of these chimeric mice were irradiated to 20 Gy to the pulmonary cavity. On day 75 following thoracic irradiation, 50% of the mice were placed on drinking water containing 100 mM MMS350. Mice in the non-chimeric group were injected intraperitoneally on day 100 after irradiation with 1×10^6 luc+ bone marrow stromal cells. Beginning 12 days after cell line injection (112 days after irradiation), the cell line injected mice were imaged at serial timepoints following injection of D-luciferin (Gold Biotechnology, St. Louis, Mo.) using a Xenogen IVIS 200 Imaging system and the bioluminescent signal for each mouse quantitated. As controls for thoracic irradiation, other C57BL/6NTac mice were irradiated to 20 Gy to the right hind limb and injected with luc+ bone marrow stromal cells in the same cell numbers and at the same time points used for the thoracic irradiation experiment. Animals were imaged for luc+ cell migration into irradiated hind limbs using methods identical to that used for pulmonary irradiation groups. The bioluminescence of the mice treated with MMS350 in the drinking water was compared to mice on regular drinking water using a Student T test. […]

The test system of another data set is mice. Nature of the data set: Dose escalation experiments in mice. The class given is in vivo, mouse. From the text:
In particular, certain embodiments of the oxetane-substituted compounds (e.g., MMS350) are radiation protector/mitigators that are water soluble, and easily administered (e.g., orally administered to a subject). […] Furthermore, MnSOD-PL is relatively ineffective when delivered weeks-months after irradiation, at the time that fibrosis is forming, and appears to be only effective when delivered prior to irradiation. In contrast, MMS350 as shown in the data reported herein, has high effectiveness when delivered months after irradiation and at the time of initiation of radiation fibrosis in the lung.

Consider `CC1(C[S+]([O-])CC2(C)COC2)COC1` [Compound 3, 3,3′-Sulfinylbis(methylene)bis(3-methyloxetane)], for which the “% Mortality after 24 h” value with Brine shrimp (1 mg/mL) was 0%; in the data set with Brine shrimp (5 mg/mL), 0%; with Brine shrimp (20 mg/mL) it was 0-10%; in the data set with Brine shrimp (50 mg/mL), 85%. Further, the “% Mortality after 48 h” value in the data set on Brine shrimp (1 mg/mL) is 0%; in the data set with Brine shrimp (5 mg/mL), 0%; in the data set on Brine shrimp (20 mg/mL) it was 0-10%; in the data set with Brine shrimp (50 mg/mL), 100%. Moreover, in the data set with Brine shrimp (concentrations up to 20 mg/mL), the “mortality after 48 hours” value is reported as less than 10%. Also, the GI50 (in data set [1]; with liver cell line (HepG2)) was approximately 200 mM throughout. The “pulmonary migration of luc+ bone marrow stromal cells” value in data set [2] (20 Gy thoracic irradiation, luc+ stromal cell line injected intraperitoneally) is listed as “significant decrease in migration into the lungs of luc+ cells; also recorded: significant decrease in pulmonary migration of luc+ bone marrow stromal cells”. Moreover, the “migration of luc+ bone marrow cells into the lungs” value in data set [2] (luc+ marrow chimeric mice, 18 or 20 Gy thoracic irradiation, listed as MMS350) is listed as “significantly reduces migration of bone marrow cells into the lungs; also recorded: reduction of luc+ areas in the thoracic cavity”. Besides, the toxic dose result with mice is “a toxic dose has not yet been reached”.
